From patent US20120270237A9, “METHODS FOR THE IDENTIFICATION OF KINASE INTERACTING MOLECULES AND FOR THE PURIFICATION OF KINASE PROTEINS” (Cellzone AG, priority 2009, published 2012)

Columns and labels:
[1] = target: T1, kinases from mixed HeLa placenta lysates (Homo sapiens, UniProt O75676); experiment: Kinobeads competition binding with immobilized CZC25342, mixed HeLa placenta lysates (Example 5, Table 7); conditions: kinase MSK2; 10 μM free compound; HeLa Placenta lysate mix
T1 construct: capturing and identification of kinases from mixed HeLa placenta lysates; endogenous in cells; host or cells: mixed lysate of HeLa cells and placenta tissue
Description: (§1) To one aliquot of cell lysate 10 μM of the free compound (FIG. 2, CZC25342) was added and allowed to bind to proteins in the lysate. Then the affinity matrix with the immobilized compound was added to capture proteins that were not interacting with the previously added free compound. Beads were separated from the lysate and bead bound proteins were eluted in SDS sample buffer and subsequently separated by SDS-Polyacrylamide gel electrophoresis (FIG. 11). Suitable gel bands were cut out and subjected to in-gel proteolytic digestion with trypsin. The second lysate aliquot was processed identically, however no free compound was added (DMSO solvent control). Peptides originating from samples 1 and 2 were labeled with iTRAQ reagents (iTRAQ 114 and iTRAQ 117) and the combined samples were analyzed with a nano-flow liquid chromatography system coupled online to a tandem mass spectrometer (LC-MS/MS) experiment followed by iTRAQ reporter ion quantification in the MS/MS spectra as described in Example 2. The identified kinases are shown in Table 7 including the percent competition values for the sample to which 10 μM free compound had been added. In total of 83 different kinases were identified and competed by different degrees.

[2] = target: T2, kinases from mixed HeLa placenta lysates (Homo sapiens, UniProt P49840); experiment: as above; conditions: kinase GSK3A; 10 μM free compound; HeLa Placenta lysate mix
T2 construct: capturing and identification of kinases from mixed HeLa placenta lysates; endogenous in cells; host or cells: mixed lysate of HeLa cells and placenta tissue
Description: as §1

[3] = target: T3, kinases from mixed HeLa placenta lysates (Homo sapiens, UniProt P30291); experiment: as above; conditions: kinase Wee1; 10 μM free compound; HeLa Placenta lysate mix
T3 construct: capturing and identification of kinases from mixed HeLa placenta lysates; endogenous in cells; host or cells: mixed lysate of HeLa cells and placenta tissue
Description: as §1

[4] = target: T4, kinases from mixed HeLa placenta lysates (Homo sapiens, UniProt P07948); experiment: as above; conditions: kinase LYN; 10 μM free compound; HeLa Placenta lysate mix
T4 construct: capturing and identification of kinases from mixed HeLa placenta lysates; endogenous in cells; host or cells: mixed lysate of HeLa cells and placenta tissue
Description: as §1

[5] = target: T5, kinases from mixed HeLa placenta lysates (Homo sapiens, UniProt Q15349); experiment: as above; conditions: kinase RSK3; 10 μM free compound; HeLa Placenta lysate mix
T5 construct: capturing and identification of kinases from mixed HeLa placenta lysates; endogenous in cells; host or cells: mixed lysate of HeLa cells and placenta tissue
Description: as §1

[6] = target: T6, kinases from mixed HeLa placenta lysates (Homo sapiens, UniProt O94804); experiment: as above; conditions: kinase LOK; 10 μM free compound; HeLa Placenta lysate mix
T6 construct: capturing and identification of kinases from mixed HeLa placenta lysates; endogenous in cells; host or cells: mixed lysate of HeLa cells and placenta tissue
Description: as §1

[7] = target: T7, kinases from mixed HeLa placenta lysates (Homo sapiens, UniProt P78527); experiment: as above; conditions: kinase DNAPK; 10 μM free compound; HeLa Placenta lysate mix
T7 construct: capturing and identification of kinases from mixed HeLa placenta lysates; endogenous in cells; host or cells: mixed lysate of HeLa cells and placenta tissue
Description: as §1

[8] = target: T8, kinases from mixed HeLa placenta lysates (Homo sapiens, UniProt O43353); experiment: as above; conditions: kinase RIPK2; 10 μM free compound; HeLa Placenta lysate mix
T8 construct: capturing and identification of kinases from mixed HeLa placenta lysates; endogenous in cells; host or cells: mixed lysate of HeLa cells and placenta tissue
Description: as §1

[9] = target: T9, kinases from mixed HeLa placenta lysates (Homo sapiens, UniProt P53350); experiment: as above; conditions: kinase PLK1; 10 μM free compound; HeLa Placenta lysate mix
T9 construct: capturing and identification of kinases from mixed HeLa placenta lysates; endogenous in cells; host or cells: mixed lysate of HeLa cells and placenta tissue
Description: as §1

[10] = target: T10, kinases from mixed HeLa placenta lysates (Homo sapiens, UniProt Q7KZI7); experiment: as above; conditions: kinase MARK2; 10 μM free compound; HeLa Placenta lysate mix
T10 construct: capturing and identification of kinases from mixed HeLa placenta lysates; endogenous in cells; host or cells: mixed lysate of HeLa cells and placenta tissue
Description: as §1

[11] = target: T11, kinases from mixed HeLa placenta lysates (Homo sapiens, UniProt P45983); experiment: as above; conditions: kinase JNK1; 10 μM free compound; HeLa Placenta lysate mix
T11 construct: capturing and identification of kinases from mixed HeLa placenta lysates; endogenous in cells; host or cells: mixed lysate of HeLa cells and placenta tissue
Description: as §1

[12] = target: T12, kinases from mixed HeLa placenta lysates (Homo sapiens, UniProt Q9Y2U5); experiment: as above; conditions: kinase MAP3K2; 10 μM free compound; HeLa Placenta lysate mix
T12 construct: capturing and identification of kinases from mixed HeLa placenta lysates; endogenous in cells; host or cells: mixed lysate of HeLa cells and placenta tissue
Description: as §1

[13] = target: BCR (Homo sapiens, UniProt P11274); experiment: Kinobeads competition binding, L-363 cell lysate; parameters: capturing and identification of kinases from L-363 cell lysate; endogenous in cells; host or cells: L-363 (DSMZ ACC49), treated with MG132 before harvest; conditions: 10 μM free compound, L-363 lysate
Description: as §1, with “3, CZC31326)” for “2, CZC25342)”, “8).” for “11).”, “2.” for “2. The identified kinases are shown in Table 7 including the percent competition values for the sample to which 10 μM free compound had been added. In total of 83 different kinases were identified and competed by different degrees.”
(§2) For this experiment the human plasma cell leukaemia line L-363 was used (German Collection of Microorganisms and Cell Cultures, DSMZ number ACC49, Braunschweig, Germany). Cells were treated for three hours with 20 μM of the proteasome inhibitor MG132 (Z-Leu-Leu-Leu-al, Sigma C2211) prior to cell harvesting.

[14] = target: MAP2K6 (Homo sapiens, UniProt P52564); experiment: Kinobeads competition binding, L-363 cell lysate; parameters: capturing and identification of kinases from L-363 cell lysate; endogenous in cells; host or cells: L-363 (DSMZ ACC49), treated with MG132 before harvest; conditions: 10 μM free compound, L-363 lysate
Description: as §1, with “3, CZC31326)” for “2, CZC25342)”, “8).” for “11).”, “2.” for “2. The identified kinases are shown in Table 7 including the percent competition values for the sample to which 10 μM free compound had been added. In total of 83 different kinases were identified and competed by different degrees.”
as §2

[15] = target: RIPK2 (Homo sapiens, UniProt O43353); experiment: Kinobeads competition binding, L-363 cell lysate; parameters: capturing and identification of kinases from L-363 cell lysate; endogenous in cells; host or cells: L-363 (DSMZ ACC49), treated with MG132 before harvest; conditions: 10 μM free compound, L-363 lysate
Description: as §1, with “3, CZC31326)” for “2, CZC25342)”, “8).” for “11).”, “2.” for “2. The identified kinases are shown in Table 7 including the percent competition values for the sample to which 10 μM free compound had been added. In total of 83 different kinases were identified and competed by different degrees.”
as §2

[16] = target: LYN (Homo sapiens, UniProt P07948); experiment: Kinobeads competition binding, L-363 cell lysate; parameters: capturing and identification of kinases from L-363 cell lysate; endogenous in cells; host or cells: L-363 (DSMZ ACC49), treated with MG132 before harvest; conditions: 10 μM free compound, L-363 lysate
Description: as §1, with “3, CZC31326)” for “2, CZC25342)”, “8).” for “11).”, “2.” for “2. The identified kinases are shown in Table 7 including the percent competition values for the sample to which 10 μM free compound had been added. In total of 83 different kinases were identified and competed by different degrees.”
as §2

T3 sequence (P30291 whole entry): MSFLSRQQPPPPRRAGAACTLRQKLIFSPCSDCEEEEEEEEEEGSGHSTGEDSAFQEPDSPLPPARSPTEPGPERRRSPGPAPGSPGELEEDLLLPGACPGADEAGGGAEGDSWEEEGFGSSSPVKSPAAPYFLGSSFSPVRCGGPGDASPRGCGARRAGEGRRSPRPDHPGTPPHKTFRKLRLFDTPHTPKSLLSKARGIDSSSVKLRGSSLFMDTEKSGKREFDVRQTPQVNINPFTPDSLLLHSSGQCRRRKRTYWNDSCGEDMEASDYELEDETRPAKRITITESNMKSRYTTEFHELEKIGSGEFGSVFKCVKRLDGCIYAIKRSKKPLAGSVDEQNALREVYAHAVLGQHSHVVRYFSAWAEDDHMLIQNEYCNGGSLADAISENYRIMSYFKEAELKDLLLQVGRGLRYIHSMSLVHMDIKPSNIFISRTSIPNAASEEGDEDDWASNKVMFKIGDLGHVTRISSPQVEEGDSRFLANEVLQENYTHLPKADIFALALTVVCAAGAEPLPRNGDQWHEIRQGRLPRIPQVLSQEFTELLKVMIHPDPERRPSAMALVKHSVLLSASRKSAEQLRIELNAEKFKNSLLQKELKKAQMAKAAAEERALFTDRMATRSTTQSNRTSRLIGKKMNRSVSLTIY
T11 sequence (P45983 whole entry): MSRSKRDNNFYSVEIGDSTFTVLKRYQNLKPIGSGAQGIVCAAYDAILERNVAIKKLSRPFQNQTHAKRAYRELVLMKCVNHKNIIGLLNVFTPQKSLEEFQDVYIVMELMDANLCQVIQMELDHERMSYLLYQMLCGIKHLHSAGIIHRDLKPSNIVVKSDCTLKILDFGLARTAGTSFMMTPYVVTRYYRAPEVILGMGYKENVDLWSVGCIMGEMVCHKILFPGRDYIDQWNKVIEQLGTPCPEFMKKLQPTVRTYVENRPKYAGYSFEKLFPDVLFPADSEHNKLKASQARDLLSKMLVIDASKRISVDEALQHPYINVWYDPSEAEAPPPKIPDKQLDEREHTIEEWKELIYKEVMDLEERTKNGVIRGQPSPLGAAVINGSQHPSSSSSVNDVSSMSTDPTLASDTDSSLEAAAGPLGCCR
T2 sequence (P49840 whole entry): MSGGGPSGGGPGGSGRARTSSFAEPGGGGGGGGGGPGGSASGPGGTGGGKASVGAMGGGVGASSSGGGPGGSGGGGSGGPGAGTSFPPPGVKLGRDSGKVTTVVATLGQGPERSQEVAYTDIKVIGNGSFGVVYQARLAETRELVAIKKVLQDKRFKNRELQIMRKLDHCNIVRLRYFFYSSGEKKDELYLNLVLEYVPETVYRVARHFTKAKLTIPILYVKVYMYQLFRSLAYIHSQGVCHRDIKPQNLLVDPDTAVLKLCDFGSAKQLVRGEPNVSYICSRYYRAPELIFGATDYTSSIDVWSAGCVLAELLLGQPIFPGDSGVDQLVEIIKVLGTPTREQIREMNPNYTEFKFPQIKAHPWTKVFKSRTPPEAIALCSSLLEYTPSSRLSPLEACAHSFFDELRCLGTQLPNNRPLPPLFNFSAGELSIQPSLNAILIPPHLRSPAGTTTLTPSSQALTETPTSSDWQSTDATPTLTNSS
T6 sequence (O94804 whole entry): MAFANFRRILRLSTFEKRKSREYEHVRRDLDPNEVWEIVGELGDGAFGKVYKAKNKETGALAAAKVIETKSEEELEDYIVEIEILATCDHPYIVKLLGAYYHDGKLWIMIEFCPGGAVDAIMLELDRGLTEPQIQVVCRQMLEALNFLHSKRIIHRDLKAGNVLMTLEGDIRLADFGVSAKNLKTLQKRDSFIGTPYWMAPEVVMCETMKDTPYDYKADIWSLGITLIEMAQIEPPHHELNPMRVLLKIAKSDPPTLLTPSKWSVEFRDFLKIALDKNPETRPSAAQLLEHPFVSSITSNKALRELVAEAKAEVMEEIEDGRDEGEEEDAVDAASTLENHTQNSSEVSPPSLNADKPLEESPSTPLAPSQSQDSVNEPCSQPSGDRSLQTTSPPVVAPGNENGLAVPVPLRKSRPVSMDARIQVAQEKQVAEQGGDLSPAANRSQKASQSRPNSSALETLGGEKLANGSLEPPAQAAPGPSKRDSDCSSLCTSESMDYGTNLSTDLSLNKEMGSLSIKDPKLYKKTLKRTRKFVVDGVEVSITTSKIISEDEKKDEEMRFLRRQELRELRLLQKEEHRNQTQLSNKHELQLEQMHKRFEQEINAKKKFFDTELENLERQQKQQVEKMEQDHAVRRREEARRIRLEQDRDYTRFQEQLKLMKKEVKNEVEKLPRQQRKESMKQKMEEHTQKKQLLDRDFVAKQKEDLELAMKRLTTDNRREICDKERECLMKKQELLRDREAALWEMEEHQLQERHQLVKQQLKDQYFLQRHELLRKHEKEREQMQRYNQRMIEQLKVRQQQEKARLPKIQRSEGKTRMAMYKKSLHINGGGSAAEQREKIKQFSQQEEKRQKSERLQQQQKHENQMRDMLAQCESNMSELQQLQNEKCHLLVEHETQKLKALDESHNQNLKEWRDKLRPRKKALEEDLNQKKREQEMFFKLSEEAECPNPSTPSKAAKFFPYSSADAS
T8 sequence (O43353 whole entry): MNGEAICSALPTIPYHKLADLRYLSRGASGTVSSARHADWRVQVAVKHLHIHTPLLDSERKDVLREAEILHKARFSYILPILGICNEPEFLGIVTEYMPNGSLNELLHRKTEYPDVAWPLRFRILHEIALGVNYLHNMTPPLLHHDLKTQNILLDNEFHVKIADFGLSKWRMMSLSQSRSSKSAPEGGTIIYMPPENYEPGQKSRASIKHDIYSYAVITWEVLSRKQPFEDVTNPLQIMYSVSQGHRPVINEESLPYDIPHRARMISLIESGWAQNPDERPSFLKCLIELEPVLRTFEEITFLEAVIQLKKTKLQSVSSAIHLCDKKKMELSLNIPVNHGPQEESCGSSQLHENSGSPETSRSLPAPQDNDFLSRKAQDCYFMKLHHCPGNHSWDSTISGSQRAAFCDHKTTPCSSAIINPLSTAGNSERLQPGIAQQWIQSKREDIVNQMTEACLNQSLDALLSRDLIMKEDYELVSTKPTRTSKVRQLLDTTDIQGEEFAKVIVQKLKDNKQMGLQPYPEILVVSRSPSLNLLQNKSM
Chain of RIPK2 (O43353 whole entry): as above
T10 sequence (Q7KZI7 whole entry): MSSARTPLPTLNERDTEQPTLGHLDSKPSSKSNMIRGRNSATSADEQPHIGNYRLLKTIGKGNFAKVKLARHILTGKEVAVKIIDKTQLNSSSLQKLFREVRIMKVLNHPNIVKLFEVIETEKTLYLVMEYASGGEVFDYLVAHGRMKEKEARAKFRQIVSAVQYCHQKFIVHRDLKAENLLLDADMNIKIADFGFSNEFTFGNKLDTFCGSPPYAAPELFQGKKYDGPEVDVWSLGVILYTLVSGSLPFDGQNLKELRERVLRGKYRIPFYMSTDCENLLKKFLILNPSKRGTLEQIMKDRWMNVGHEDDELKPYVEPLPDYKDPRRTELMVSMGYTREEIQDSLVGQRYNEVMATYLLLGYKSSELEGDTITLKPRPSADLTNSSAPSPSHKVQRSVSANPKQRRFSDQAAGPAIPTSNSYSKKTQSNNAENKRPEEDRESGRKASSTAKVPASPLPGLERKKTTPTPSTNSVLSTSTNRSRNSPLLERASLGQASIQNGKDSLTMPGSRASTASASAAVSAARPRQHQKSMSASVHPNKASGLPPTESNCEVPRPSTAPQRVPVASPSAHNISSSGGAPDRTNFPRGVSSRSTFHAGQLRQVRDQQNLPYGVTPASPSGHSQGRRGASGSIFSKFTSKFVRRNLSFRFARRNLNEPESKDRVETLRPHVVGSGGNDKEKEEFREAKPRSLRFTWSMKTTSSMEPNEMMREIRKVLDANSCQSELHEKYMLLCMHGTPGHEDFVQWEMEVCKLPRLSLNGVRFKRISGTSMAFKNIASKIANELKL
T12 sequence (Q9Y2U5 whole entry): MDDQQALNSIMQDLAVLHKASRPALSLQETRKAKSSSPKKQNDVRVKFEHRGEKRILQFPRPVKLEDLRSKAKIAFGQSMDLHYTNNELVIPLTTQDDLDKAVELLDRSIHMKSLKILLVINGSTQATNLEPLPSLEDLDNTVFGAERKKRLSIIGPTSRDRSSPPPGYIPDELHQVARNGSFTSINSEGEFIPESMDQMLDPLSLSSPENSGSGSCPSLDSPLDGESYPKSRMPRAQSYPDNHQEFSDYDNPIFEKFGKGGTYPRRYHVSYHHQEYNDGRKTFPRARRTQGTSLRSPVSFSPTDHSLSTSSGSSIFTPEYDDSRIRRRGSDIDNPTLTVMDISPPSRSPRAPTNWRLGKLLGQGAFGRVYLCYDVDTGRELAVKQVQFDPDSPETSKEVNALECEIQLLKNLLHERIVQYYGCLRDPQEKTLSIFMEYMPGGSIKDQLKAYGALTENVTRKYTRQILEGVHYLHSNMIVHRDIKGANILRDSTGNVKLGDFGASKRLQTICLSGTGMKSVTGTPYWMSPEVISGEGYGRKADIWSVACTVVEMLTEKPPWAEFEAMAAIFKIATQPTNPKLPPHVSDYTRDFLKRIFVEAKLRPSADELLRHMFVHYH
T4 sequence (P07948 whole entry): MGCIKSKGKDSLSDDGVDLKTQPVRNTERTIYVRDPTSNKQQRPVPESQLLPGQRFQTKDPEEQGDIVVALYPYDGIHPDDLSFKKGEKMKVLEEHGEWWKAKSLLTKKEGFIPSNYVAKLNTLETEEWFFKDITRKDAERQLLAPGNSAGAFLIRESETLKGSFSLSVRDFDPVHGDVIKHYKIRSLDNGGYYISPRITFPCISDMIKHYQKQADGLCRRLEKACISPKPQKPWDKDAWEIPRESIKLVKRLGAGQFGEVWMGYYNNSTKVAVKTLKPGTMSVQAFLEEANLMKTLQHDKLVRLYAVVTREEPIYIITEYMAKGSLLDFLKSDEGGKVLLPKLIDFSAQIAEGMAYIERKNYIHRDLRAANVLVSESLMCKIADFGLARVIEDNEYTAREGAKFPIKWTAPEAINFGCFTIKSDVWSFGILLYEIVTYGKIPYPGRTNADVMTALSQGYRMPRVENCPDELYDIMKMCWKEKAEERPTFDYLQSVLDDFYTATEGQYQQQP

Competition % MSK2 [1] [%]	Competition % GSK3A [2] [%]	Competition % Wee1 [3] [%]	Competition % LYN [4] [%]	Competition % RSK3 [5] [%]	Competition % LOK [6] [%]	Competition % DNAPK [7] [%]	Competition % RIPK2 [8] [%]	Competition % PLK1 [9] [%]	Competition % MARK2 [10] [%]	Competition % JNK1 [11] [%]	Competition % MAP3K2 [12] [%]	inhibition at 10 µM [13] [%]	inhibition at 10 µM [14] [%]	inhibition at 10 µM [15] [%]	inhibition at 10 µM [16] [%]	Structure (SMILES)
93.2	94.6	97.5	83.1	95.5	97.7	89.2	94.4	94.6	93.4	84.3	94.7					CS(=O)(=O)Nc1ccccc1Nc1nc(Nc2cccc(OCCN)c2)ncc1F [CZC25342, N-(2-(2-(3-(2-aminoethoxy)phenylamino)-5-fluoropyrimidin-4-ylamino)phenyl)methanesulfonamide]
												93.6	94.2	95.5	94.5	CS(=O)(=O)Nc1ccccc1Nc1nc(Nc2cccc(OCCN)c2)ncc1Cl [CZC31326, N-(2-(2-(3-(2-aminoethoxy)phenylamino)-5-chloropyrimidin-4-ylamino)phenyl)methanesulfonamide]
